Like-named read-outs stand apart in the source and are kept apart here.
How the values were obtained:
AR = target: T1, AR (Rattus norvegicus, UniProt P15207); assay: AR binding, PolarScreen AR Competitor Assay (fluorescence polarization)
T1 construct: purchased Thermo Fisher Scientific
T1 sequence (P15207 646-902 limits assumed): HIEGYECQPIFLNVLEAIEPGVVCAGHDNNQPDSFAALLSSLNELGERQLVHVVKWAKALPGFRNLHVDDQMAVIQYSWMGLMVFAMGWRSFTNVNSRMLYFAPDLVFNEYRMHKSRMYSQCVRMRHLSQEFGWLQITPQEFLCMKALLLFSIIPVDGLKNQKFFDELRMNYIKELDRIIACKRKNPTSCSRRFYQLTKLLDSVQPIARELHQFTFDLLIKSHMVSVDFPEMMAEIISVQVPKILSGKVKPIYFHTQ
Method: AR Binding. Ligand binding was analyzed using the PolarScreen AR Competitor Assay Kit, Green, according to the manufacturer's instructions (Thermo Fisher Scientific). Fluorescence polarization was measured after a 4-h incubation using an EnVision 2103 Multilabel Plate Reader (PerkinElmer).

AR T878A = target: T2, AR T878A (Homo sapiens, UniProt P10275, T878A); assay: cell-based; type: cell-based
T2 construct: LNCaP cells expressing AR T878A; endogenous in cells; host or cells: LNCaP-luc (LNCaP stably carrying the Cignal Lenti AR Reporter)
T2 sequence (P10275 1-920 T878A): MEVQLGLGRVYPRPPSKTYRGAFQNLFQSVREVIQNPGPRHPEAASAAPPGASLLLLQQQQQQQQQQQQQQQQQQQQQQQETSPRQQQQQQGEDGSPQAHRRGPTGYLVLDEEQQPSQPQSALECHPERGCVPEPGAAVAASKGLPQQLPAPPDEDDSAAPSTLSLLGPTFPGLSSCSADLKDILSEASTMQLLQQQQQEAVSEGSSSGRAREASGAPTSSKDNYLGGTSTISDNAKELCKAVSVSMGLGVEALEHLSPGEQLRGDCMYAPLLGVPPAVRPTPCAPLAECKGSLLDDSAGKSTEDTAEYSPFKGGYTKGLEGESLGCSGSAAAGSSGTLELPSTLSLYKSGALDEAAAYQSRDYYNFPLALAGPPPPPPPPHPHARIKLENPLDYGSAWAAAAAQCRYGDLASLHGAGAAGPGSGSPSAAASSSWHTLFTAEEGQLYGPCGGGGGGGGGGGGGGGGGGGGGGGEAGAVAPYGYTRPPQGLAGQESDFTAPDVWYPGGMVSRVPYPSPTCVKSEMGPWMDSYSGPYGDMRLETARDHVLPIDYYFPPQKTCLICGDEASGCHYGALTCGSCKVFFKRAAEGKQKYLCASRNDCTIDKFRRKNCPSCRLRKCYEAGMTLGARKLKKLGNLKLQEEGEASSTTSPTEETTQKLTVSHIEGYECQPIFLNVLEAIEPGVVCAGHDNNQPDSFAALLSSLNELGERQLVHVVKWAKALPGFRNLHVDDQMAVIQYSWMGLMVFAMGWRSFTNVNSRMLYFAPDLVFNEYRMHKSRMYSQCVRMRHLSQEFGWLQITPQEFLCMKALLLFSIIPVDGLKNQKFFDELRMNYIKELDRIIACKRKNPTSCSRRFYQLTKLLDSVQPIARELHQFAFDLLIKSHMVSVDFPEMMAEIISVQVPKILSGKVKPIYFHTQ
From the text: We generated a LNCaP cell line stably expressing luciferase controlled by androgen response elements (ARE-luciferase).
Cell Culture and Treatments. The LNCaP cell line were obtained from ATCC, cultured in RPMI1640 (Corning) supplemented with 10% heat-inactivated GemCell bovine serum (Gemini Bio-Products) and Penicillin-Streptomycin (Gemini Bio-Products). Cell lines stably expressing ARE-luciferase (LNCaP-luc) was generated using Cignal Lenti AR Reporter (Qiagen) and was continuously cultured with 500 ng/mL Puromycin (Gibco) for positive selection. Cells were maintained at 37° C. in a humidified incubator with 5% carbon dioxide. All cell lines were authenticated using NIST approved short tandem repeat (STR) DNA profiling performed by the University of Arizona Genetics Core and routinely tested negative for mycoplasma.
Luciferase assay. LNCaP-luc cells were seeded in clear flat bottom white polystyrene 96-well plates (Corning) at a density of 12,000 cells/well. […] Dose-response curves were fit using the delta method and t-distribution (n=1). Compounds are tested up to 10 μM.

C[C@]12O[C@](C)(C[C@H]1NC(=O)c1cc(-c3ccco3)[nH]n1)[C@H]1C(=O)N(c3ccc(C#N)c(C(F)(F)F)c3)C(=O)[C@H]12 [EITM-1711, N-((3aR,4R,5R,7R,7 aS)-2-(4-cyano-3-(trifluoromethyl)phenyl)-4,7-dimethyl-1,3-dioxooctahydro-1H-4,7-epoxyisoindol-5-yl)-5-(furan-2-yl)-1H-pyrazole-3-carboxamide]
binding to AR in vitro, in words (AR): appeared to accommodate
EC50 (AR T878A): 535 nM
Emax (AR T878A; LNCaP): 1%

Cc1c(N2C(=O)[C@@H]3[C@H](C2=O)[C@@]2(C)C[C@@H](NC(=O)c4cc(C(C)O)[nH]n4)[C@]3(C)O2)ccc(C#N)c1C(F)(F)F (stereo partly drawn) [EITM-1712, N-((3aR,4R,5R,7R,7 aS)-2-(4-cyano-2-methyl-3-(trifluoromethyl)phenyl)-4,7-dimethyl-1,3-dioxooctahydro-1H-4,7-epoxyisoindol-5-yl)-5-(1-hydroxyethyl)-1H-pyrazole-3-carboxamide]
AR agonism / antagonism in LNCaP ARE-luciferase, in words (AR T878A): pure antagonists
EC50 (AR T878A): 2130 nM
Emax (AR T878A; LNCaP): 38%

3-(4-acetylpiperazin-1-yl)-N-((3aR,4R,5R,7R,7aS)-2-(4-cyano-3-(trifluoromethyl)phenyl)-4,7-dimethyl-1,3-dioxooctahydro-1H-4,7-epoxyisoindol-5-yl)propenamide [EITM-1716]
binding to AR in vitro, in words (AR): did not bind AR
IC50 (AR; printed inside the ED50 cell of Table 2, read-out: IC50 (No binding)): > 5000 nM
ED50 (AR T878A): No binding (IC50 > 5 μM)
Emax (AR T878A): No binding

C[C@]12O[C@](C)(C[C@H]1NC(=O)c1n[nH]c3ccccc13)[C@H]1C(=O)N(c3ccc(C#N)c(C(F)(F)F)c3)C(=O)[C@H]12 [EITM-1709, N-((3aR,4R,5R,7R,7 aS)-2-(4-cyano-3-(trifluoromethyl)phenyl)-4,7-dimethyl-1,3-dioxooctahydro-1H-4,7-epoxyisoindol-5-yl)-1H-indazole-3-carboxamide]
binding to AR in vitro, in words (AR): appeared to accommodate
EC50 (AR T878A): 328 nM
Emax (AR T878A; LNCaP): 1%

CC(=O)c1cc(C(=O)N[C@@H]2C[C@@]3(C)O[C@]2(C)[C@@H]2C(=O)N(c4ccc(C#N)c(C(F)(F)F)c4)C(=O)[C@@H]23)n[nH]1 [EITM-1703, 5-acetyl-N-((3aR,4R,5R,7R,7aS)-2-(4-cyano-3-(trifluoromethyl)phenyl)-4,7-dimethyl-1,3-dioxooctahydro-1H-4,7-epoxyisoindol-5-yl)-1H-pyrazole-3-carboxamide]
AR agonism / antagonism in LNCaP ARE-luciferase, in words (AR T878A): robust antagonistic activities without notable agonism
EC50 (AR T878A): 1700 nM
Emax (AR T878A; LNCaP): 20%

CCS(=O)(=O)N[C@@H]1C[C@@]2(C)O[C@]1(C)[C@@H]1C(=O)N(c3ccc(C#N)c(C(F)(F)F)c3F)C(=O)[C@@H]12 [EITM-1705, N-((3aR,4R,5R,7R,7aS)-2-(4-cyano-2-fluoro-3-(trifluoromethyl)phenyl)-4,7-dimethyl-1,3-dioxooctahydro-1H-4,7-epoxyisoindol-5-yl)ethanesulfonamide]
AR agonism / antagonism in LNCaP ARE-luciferase, in words (AR T878A): displayed notable AR agonism
ED50 (AR T878A): agonist
Emax (AR T878A): agonist

CC(=O)N1CCC(C(=O)N[C@@H]2C[C@@]3(C)O[C@]2(C)[C@@H]2C(=O)N(c4ccc(C#N)c(C(F)(F)F)c4)C(=O)[C@@H]23)CC1 [EITM-1717, 1-acetyl-N-((3aR,4R,5R,7R,7aS)-2-(4-cyano-3-(trifluoromethyl)phenyl)-4,7-dimethyl-1,3-dioxooctahydro-1H-4,7-epoxyisoindol-5-yl)piperidine-4-carboxamide]
binding to AR in vitro, in words (AR): did not bind AR
ED50 (AR T878A): No binding
Emax (AR T878A): No binding

CC(O)c1cc(C(=O)N[C@@H]2C[C@@]3(C)O[C@]2(C)[C@@H]2C(=O)N(c4ccc(C#N)c(C(F)(F)F)c4)C(=O)[C@@H]23)n[nH]1 (stereo partly drawn) [EITM-1704, N-((3aR,4R,5R,7R,7aS)-2-(4-cyano-3-(trifluoromethyl)phenyl)-4,7-dimethyl-1,3-dioxooctahydro-1H-4,7-epoxyisoindol-5-yl)-5-(1-hydroxyethyl)-1H-pyrazole-3-carboxamide]
AR agonism / antagonism in LNCaP ARE-luciferase, in words (AR T878A): robust antagonistic activities without notable agonism
EC50 (AR T878A): 3700 nM
Emax (AR T878A; LNCaP): 11%

Reference: patent publication US12552806B2, “Androgen receptor regulation by small molecule enantiomers” (University of Southern California, priority 2020, dated 2026)
